Test results: US10494366B2, “Pesticidally active amide heterocyclic derivatives with sulphur containing substituents” (Syngenta Participations AG, priority 2014, dated 2019)

Experiments:
Format in all cases: in vivo
[1] = test system: Spodoptera littoralis (Egyptian cotton leaf worm); assay: Example B1: Spodoptera littoralis, sprayed cotton leaf discs; conditions: foliar, 72 h, application rate 200 ppm, L1 larvae, 3 days after infestation, read-out: control in at least one of the three categories (mortality, anti-feedancy or growth inhibition)
Description: Cotton leaf discs were placed on agar in 24-well microtiter plates and sprayed with aqueous test solutions prepared from 10,000 ppm DMSO stock solutions. After drying the leaf discs were infested with five L1 larvae. The samples were assessed for mortality, anti-feedant effect, and growth inhibition in comparison to untreated samples 3 days after infestation. Control of Spodoptera littoralis by a test sample is when at least one of mortality, anti-feedant effect, and growth inhibition is higher than the untreated sample.

[2] = test system: Plutella xylostella (diamond back moth); assay: Example B3: Plutella xylostella, treated artificial diet; conditions: 120 h, application rate 200 ppm, L2 larvae, 5 days after infestation, read-out: effect in at least one of the two categories (mortality or growth inhibition)
Description: (§1) 24-well microtiter plates with artificial diet were treated with aqueous test solutions prepared from 10,000 ppm DMSO stock solutions by pipetting. After drying, the plates were infested with L2 larvae (10 to 15 per well). The samples were assessed for mortality and growth inhibition in comparison to untreated samples 5 days after infestation.

[3] = test system: Diabrotica balteata (corn root worm); assay: Example B4: Diabrotica balteata, sprayed maize sprouts; conditions: 96 h, application rate 200 ppm, L2 larvae, 4 days after infestation, read-out: effect in at least one of the two categories (mortality or growth inhibition)
Description: as §1, with “Maize sprouts, placed on an agar layer in 24-well” for “24-well”, “plates” for “plates with artificial diet”, “spraying.” for “pipetting.”, “(6” for “(10”, “10” for “15”, “4” for “5”

[4] = test system: Euschistus heros (neotropical brown stink bug); assay: Example B6: Euschistus heros, sprayed soybean leaf; conditions: 120 h, application rate 200 ppm, N-2 nymphs, 5 days after infestation
Excerpt: Soybean leaf on agar in 24-well microtiter plates were sprayed with aqueous test solutions prepared from 10,000 ppm DMSO stock solutions. After drying the leaf were infested with N-2 nymphs.

[5] = test system: Spodoptera littoralis (Egyptian cotton leaf worm); assay: Example B2: Spodoptera littoralis, systemic test via lettuce roots in agar; conditions: 144 h, application rate 12.5 ppm, Spodoptera eggs, 6 days after infestation, read-out: control in at least one of the three categories (mortality, anti-feedancy or growth inhibition)
Excerpt: Test compounds were applied by pipette from 10,000 ppm DMSO stock solutions into 24-well plates and mixed with agar. Lettuce seeds were placed on the agar and the multi well plate was closed by another plate which contains also agar. After 7 days the roots have absorbed the compound and the lettuce has grown into the lid plate. The lettuce leafs were now cut off into the lid plate. Spodoptera eggs were pipetted through a plastic stencil on a humid gel blotting paper and the plate closed with it. The samples were assessed for mortality, anti-feedant effect and growth inhibition in comparison to untreated samples 6 days after infestation.
The following compounds gave an effect of at least 80% control in at least one of the three categories (mortality, anti-feedancy or growth inhibition) at an application rate of 12.5 ppm: P2, P3, P8, P9, P11 and P17, P19, P20, P22, P23, P25, P26, P28, P30, P31, P32, P33, P40, P42, P43, P44, P45, P46, P47, P48, P49, P50, P51, P52, P53, P54, P60 and P61.

CCS(=O)(=O)c1cc(-c2cc(F)cc(F)c2)cnc1C(=O)/N=c1\sc(C(F)(F)F)nn1C [Compound P35]
≥ 80%: percent control (mortality, anti-feedant effect or growth inhibition) at 200 ppm [1] | percent effect (mortality or growth inhibition) at 200 ppm [2] | percent effect (mortality or growth inhibition) at 200 ppm [3]

CCS(=O)(=O)c1cc(-c2ncc(C#N)cn2)cnc1C(=O)/N=c1\sc(C(F)(F)F)nn1C [Compound P68]
≥ 80%: percent effect (mortality or growth inhibition) at 200 ppm [2] | percent effect (mortality or growth inhibition) at 200 ppm [3] | mortality at 200 ppm [4]

CCS(=O)(=O)c1cc(-c2ccc(C#N)cc2)cnc1C(=O)/N=c1\sc(C(F)(F)F)nn1C [Compound P28]
≥ 80%: percent control (mortality, anti-feedant effect or growth inhibition) at 200 ppm [1] | percent control (mortality, anti-feedant effect or growth inhibition) at 12.5 ppm [5] | percent effect (mortality or growth inhibition) at 200 ppm [2] | percent effect (mortality or growth inhibition) at 200 ppm [3] | mortality at 200 ppm [4]

CCS(=O)(=O)c1cc(-c2cccc(C(F)(F)F)c2)cnc1C(=O)/N=c1\sc(C(F)(F)F)nn1C [Compound P37]
≥ 80%: percent control (mortality, anti-feedant effect or growth inhibition) at 200 ppm [1] | percent effect (mortality or growth inhibition) at 200 ppm [2] | percent effect (mortality or growth inhibition) at 200 ppm [3]

CCS(=O)(=O)c1ccc(-c2ccc(C(F)(F)F)cc2)nc1C(=O)/N=c1\sc(C(F)(F)F)nn1C [Compound P21, (N)-3-ethylsulfonyl-N-[3-methyl-5-(trifluoromethyl)-1,3,4-thiadiazol-2-ylidene]-6-[4-(trifluoromethyl)phenyl]pyridine-2-carboxamide]
≥ 80%: percent control (mortality, anti-feedant effect or growth inhibition) at 200 ppm [1]

CCS(=O)(=O)c1cc(-c2cncc(C(F)(F)F)n2)cnc1C(=O)/N=c1\sc(C(F)(F)F)nn1C [Compound P61]
≥ 80%: percent control (mortality, anti-feedant effect or growth inhibition) at 200 ppm [1] | percent control (mortality, anti-feedant effect or growth inhibition) at 12.5 ppm [5] | percent effect (mortality or growth inhibition) at 200 ppm [2] | percent effect (mortality or growth inhibition) at 200 ppm [3] | mortality at 200 ppm [4]

CCS(=O)(=O)c1cc(-c2cc(Cl)c(F)c(Cl)c2)cnc1C(=O)/N=c1\sc(C(F)(F)F)nn1C [Compound P27]
≥ 80%: percent control (mortality, anti-feedant effect or growth inhibition) at 200 ppm [1] | percent effect (mortality or growth inhibition) at 200 ppm [2] | percent effect (mortality or growth inhibition) at 200 ppm [3]

CCS(=O)(=O)c1cc(-c2ccc(Cl)cn2)cnc1C(=O)/N=c1\sc(C(F)(F)F)nn1C [Compound P49]
≥ 80%: percent control (mortality, anti-feedant effect or growth inhibition) at 200 ppm [1] | percent control (mortality, anti-feedant effect or growth inhibition) at 12.5 ppm [5] | percent effect (mortality or growth inhibition) at 200 ppm [2] | percent effect (mortality or growth inhibition) at 200 ppm [3] | mortality at 200 ppm [4]

CCS(=O)(=O)c1cc(-c2ncc(C(F)(F)F)s2)cnc1C(=O)/N=c1\sc(C(F)(F)F)nn1C [Compound P58]
≥ 80%: percent control (mortality, anti-feedant effect or growth inhibition) at 200 ppm [1] | percent effect (mortality or growth inhibition) at 200 ppm [3]

CCSc1cc(-n2ccc(C(F)(F)F)n2)cnc1C(=O)/N=c1\sc(C(F)(F)F)nn1C [Compound P13]
≥ 80%: percent effect (mortality or growth inhibition) at 200 ppm [3]

CCS(=O)(=O)c1cc(-c2ccc(C#N)cn2)cnc1C(=O)/N=c1\sc(C(F)(F)F)nn1C [Compound P69]
≥ 80%: percent control (mortality, anti-feedant effect or growth inhibition) at 200 ppm [1] | percent effect (mortality or growth inhibition) at 200 ppm [2] | percent effect (mortality or growth inhibition) at 200 ppm [3] | mortality at 200 ppm [4]

CCSc1cc(-c2ccc(Cl)cc2)cnc1C(=O)/N=c1\sc(C(F)(F)C(F)(F)F)nn1C [Compound P12]
≥ 80%: percent effect (mortality or growth inhibition) at 200 ppm [3]

CCS(=O)(=O)c1cc(-c2cccc(F)c2)cnc1C(=O)/N=c1\sc(C(F)(F)F)nn1C [Compound P26]
≥ 80%: percent control (mortality, anti-feedant effect or growth inhibition) at 200 ppm [1] | percent control (mortality, anti-feedant effect or growth inhibition) at 12.5 ppm [5] | percent effect (mortality or growth inhibition) at 200 ppm [2] | percent effect (mortality or growth inhibition) at 200 ppm [3] | mortality at 200 ppm [4]

CCS(=O)(=O)c1cc(-c2ccc(F)cc2)cnc1C(=O)/N=c1\sc(C(F)(F)F)nn1C [Compound P32]
≥ 80%: percent control (mortality, anti-feedant effect or growth inhibition) at 200 ppm [1] | percent control (mortality, anti-feedant effect or growth inhibition) at 12.5 ppm [5] | percent effect (mortality or growth inhibition) at 200 ppm [2] | percent effect (mortality or growth inhibition) at 200 ppm [3] | mortality at 200 ppm [4]

CCS(=O)(=O)c1cc(-n2ccc(C(F)(F)F)n2)cnc1C(=O)/N=c1\sc(C(F)(F)C(F)(F)F)nn1C [Compound P9, (N)-3-ethylsulfonyl-N-[3-methyl-5-(1,1,2,2,2-pentafluoroethyl)-1,3,4-thiadiazol-2-ylidene]-5-[3-(trifluoromethyl)pyrazol-1-yl]pyridine-2-carboxamide]
≥ 80%: percent control (mortality, anti-feedant effect or growth inhibition) at 200 ppm [1] | percent control (mortality, anti-feedant effect or growth inhibition) at 12.5 ppm [5] | percent effect (mortality or growth inhibition) at 200 ppm [2] | percent effect (mortality or growth inhibition) at 200 ppm [3]

CCS(=O)(=O)c1cc(-c2cc(F)cc(F)c2)cnc1C(=O)/N=c1\sc(C(F)(F)C(F)(F)F)nn1C [Compound P67]
≥ 80%: percent effect (mortality or growth inhibition) at 200 ppm [2] | percent effect (mortality or growth inhibition) at 200 ppm [3] | mortality at 200 ppm [4]

CCS(=O)(=O)c1cc(-c2ncc(Cl)cn2)cnc1C(=O)/N=c1\sc(C(F)(F)F)nn1C [Compound P65]
≥ 80%: percent control (mortality, anti-feedant effect or growth inhibition) at 200 ppm [1] | percent effect (mortality or growth inhibition) at 200 ppm [2] | percent effect (mortality or growth inhibition) at 200 ppm [3] | mortality at 200 ppm [4]

CCS(=O)(=O)c1cc(-c2cc(Cl)cc(Cl)c2)cnc1C(=O)/N=c1\sc(C(F)(F)F)nn1C [Compound P24]
≥ 80%: percent control (mortality, anti-feedant effect or growth inhibition) at 200 ppm [1]

CCS(=O)(=O)c1cc(-c2cc(Cl)ccn2)cnc1C(=O)/N=c1\sc(C(F)(F)F)nn1C [Compound P41]
≥ 80%: percent control (mortality, anti-feedant effect or growth inhibition) at 200 ppm [1] | percent effect (mortality or growth inhibition) at 200 ppm [2] | percent effect (mortality or growth inhibition) at 200 ppm [3] | mortality at 200 ppm [4]

CCS(=O)(=O)c1cc(-c2cccc(SC)c2)cnc1C(=O)/N=c1\sc(C(F)(F)F)nn1C [Compound P30]
≥ 80%: percent control (mortality, anti-feedant effect or growth inhibition) at 12.5 ppm [5] | percent effect (mortality or growth inhibition) at 200 ppm [3]

CCS(=O)(=O)c1cc(-c2ccc(SC)cc2)cnc1C(=O)/N=c1\sc(C(F)(F)F)nn1C [Compound P38]
≥ 80%: percent control (mortality, anti-feedant effect or growth inhibition) at 200 ppm [1] | percent effect (mortality or growth inhibition) at 200 ppm [2] | percent effect (mortality or growth inhibition) at 200 ppm [3]

CCS(=O)(=O)c1cc(-c2ccc(Cl)c(Cl)c2)cnc1C(=O)/N=c1\sc(C(F)(F)F)nn1C [Compound P36]
≥ 80%: percent control (mortality, anti-feedant effect or growth inhibition) at 200 ppm [1] | percent effect (mortality or growth inhibition) at 200 ppm [2] | percent effect (mortality or growth inhibition) at 200 ppm [3]

CCSc1cc(-c2ccc(C(F)(F)F)cc2)cnc1C(=O)N=c1ccc(SC(F)(F)F)cn1C [Compound P15]
≥ 80%: percent effect (mortality or growth inhibition) at 200 ppm [3]

CCS(=O)(=O)c1cc(-c2cc(C#N)ccn2)cnc1C(=O)/N=c1\sc(C(F)(F)F)nn1C [Compound P62]
≥ 80%: percent control (mortality, anti-feedant effect or growth inhibition) at 200 ppm [1] | percent effect (mortality or growth inhibition) at 200 ppm [2] | mortality at 200 ppm [4]

CCS(=O)(=O)c1ccc(-c2cnc(C(=O)/N=c3\sc(C(F)(F)F)nn3C)c(S(=O)(=O)CC)c2)cc1 [Compound P4]
≥ 80%: percent control (mortality, anti-feedant effect or growth inhibition) at 200 ppm [1] | percent effect (mortality or growth inhibition) at 200 ppm [2] | percent effect (mortality or growth inhibition) at 200 ppm [3]

CCS(=O)(=O)c1cc(-c2ccc(Cl)cc2Cl)cnc1C(=O)/N=c1\sc(C(F)(F)F)nn1C [Compound P34]
≥ 80%: percent control (mortality, anti-feedant effect or growth inhibition) at 200 ppm [1] | percent effect (mortality or growth inhibition) at 200 ppm [2] | percent effect (mortality or growth inhibition) at 200 ppm [3] | mortality at 200 ppm [4]

CCS(=O)(=O)c1cc(-c2ccc(OC(F)(F)F)cc2)cnc1C(=O)/N=c1\sc(C(F)(F)F)nn1C [Compound P22]
≥ 80%: percent control (mortality, anti-feedant effect or growth inhibition) at 200 ppm [1] | percent control (mortality, anti-feedant effect or growth inhibition) at 12.5 ppm [5] | percent effect (mortality or growth inhibition) at 200 ppm [2] | percent effect (mortality or growth inhibition) at 200 ppm [3]

CCS(=O)(=O)c1cc(-n2ccc(C(F)(F)F)n2)cnc1C(=O)/N=c1\sc(C(F)(F)F)nn1C [Compound P14]
≥ 80%: percent control (mortality, anti-feedant effect or growth inhibition) at 200 ppm [1] | percent effect (mortality or growth inhibition) at 200 ppm [2] | percent effect (mortality or growth inhibition) at 200 ppm [3]
